The experiment deals with BDF1 mice, P388 leukemia ip, median survival T/C. In words: NCI In Vivo Anticancer Drug Screen. Data for tumor model P388 Leukemia (intraperitoneal) in B6D2F1 (BDF1) mice. Conditions: endpoint: median survival time, higher = longer survival. The method, boiled down:
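Antitumour effect was judged in vivo: survival in drug-treated mice, normalised to that of vehicle-dosed controls, gives the reported T/C.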

[1] abbreviates: dose: 100.0 mg/kg/injection, schedule: Q01DX001 (ip), vehicle: saline with Tween-80.
The mark [2] stands for this setting: dose: 200.0 mg/kg/injection, schedule: Q01DX001 (ip), vehicle: saline with Tween-80.
[3] abbreviates: dose: 100.0 mg/kg/injection, schedule: Q04DX003 (ip), vehicle: saline.
The mark [4] stands for this setting: dose: 100.0 mg/kg/injection, schedule: Q01DX009 (ip), vehicle: saline.
Where [5] appears, read: dose: 200.0 mg/kg/injection, schedule: Q01DX009 (ip), vehicle: saline.

Molecules are shown by their SMILES. Where “and” joins values, the source holds several entries; their conditions need not be identical. Identical values can stand only once. Inconclusive results and toxic doses are left out.

In the case of `CCOC(=O)C(Cc1ccc(N(CCCl)CCCl)cc1)NP1(=O)NCCCO1` (centres undefined), the T/C by setting is: (dose: 6.25 mg/kg/injection, schedule: Q01DX009 (ip), vehicle: Klucel (hydroxypropylcellulose) (HPC)) 153 % of control; (dose: 9.0 mg/kg/injection, schedule: Q04DX003 (ip), vehicle: Klucel (hydroxypropylcellulose) (HPC)) 169 % of control; (dose: 9.5 mg/kg/injection, schedule: Q04DX003 (ip), vehicle: Klucel (hydroxypropylcellulose) (HPC)) 154 % of control; (dose: 12.0 mg/kg/injection, schedule: Q04DX003 (ip), vehicle: Klucel (hydroxypropylcellulose) (HPC)) 209 % of control; (dose: 12.5 mg/kg/injection, schedule: Q01DX009 (ip), vehicle: Klucel (hydroxypropylcellulose) (HPC)) 230 % of control; (dose: 14.5 mg/kg/injection, schedule: Q04DX003 (ip), vehicle: Klucel (hydroxypropylcellulose) (HPC)) 166 % of control. The T/C is, setting by setting: (dose: 22.0 mg/kg/injection, schedule: Q04DX003 (ip), vehicle: Klucel (hydroxypropylcellulose) (HPC)) 166 % of control; (dose: 25.0 mg/kg/injection, schedule: Q01DX009 (ip), vehicle: Klucel (hydroxypropylcellulose) (HPC)) 230 % of control; (dose: 25.0 mg/kg/injection, schedule: Q04DX003 (ip), vehicle: Klucel (hydroxypropylcellulose) (HPC)) 272 % of control; (dose: 33.0 mg/kg/injection, schedule: Q04DX003 (ip), vehicle: Klucel (hydroxypropylcellulose) (HPC)) 250 % of control and 212 % of control; (dose: 50.0 mg/kg/injection, schedule: Q04DX003 (ip), vehicle: Klucel (hydroxypropylcellulose) (HPC)) 250 % of control and 181 % of control; (dose: 75.0 mg/kg/injection, schedule: Q04DX003 (ip), vehicle: Klucel (hydroxypropylcellulose) (HPC)) 91 % of control.

With `CCCCCCCCOc1cc(OC(C)=O)c2c(ccc3ccccc32)c1`, the T/C by setting is: (dose: 100.0 mg/kg/injection, schedule: Q04DX003 (ip), vehicle: saline with Tween-80) 88 % of control; (dose: 200.0 mg/kg/injection, schedule: Q04DX003 (ip), vehicle: saline with Tween-80) 87 % of control; (dose: 400.0 mg/kg/injection, schedule: Q04DX003 (ip), vehicle: saline with Tween-80) 88 % of control.

`COC(=O)/C=C1/OC(=O)CC1(C)C`: the T/C is 105 % of control under setting [1]; 95 % of control under setting [2]; 100 % of control (dose: 400.0 mg/kg/injection, schedule: Q01DX001 (ip), vehicle: saline with Tween-80).

As for `Nc1nc(=S)c2[nH]cnc2[nH]1`, the T/C runs as follows: (dose: 0.12 mg/kg/injection, schedule: Q01DX009 (ip), vehicle: acetone) 91 % of control; (dose: 0.25 mg/kg/injection, schedule: Q01DX009 (ip), vehicle: acetone) 100 % of control; (dose: 0.5 mg/kg/injection, schedule: Q01DX009 (ip), vehicle: acetone) 104 % of control; (dose: 0.63 mg/kg/injection, schedule: Q01DX010 (ip), vehicle: saline) 122 % of control; (dose: 1.0 mg/kg/injection, schedule: Q01DX009 (ip), vehicle: acetone) 112 % of control; (dose: 1.25 mg/kg/injection, schedule: Q01DX010 (ip), vehicle: other) 115 % of control. Also, the T/C runs as follows: (dose: 1.25 mg/kg/injection, schedule: Q01DX010 (ip), vehicle: saline) 159 % of control; (dose: 2.0 mg/kg/injection, schedule: Q01DX009 (ip), vehicle: acetone) 95 % of control; (dose: 2.5 mg/kg/injection, schedule: Q01DX010 (ip), vehicle: other) 111 % of control; (dose: 2.5 mg/kg/injection, schedule: Q01DX010 (ip), vehicle: saline) 104 % of control; (dose: 5.0 mg/kg/injection, schedule: Q01DX010 (ip), vehicle: other) 90 % of control and 100 % of control; (dose: 5.0 mg/kg/injection, schedule: Q01DX010 (ip), vehicle: saline) 100 % of control.

For `CCN(CC)c1ccc(N)cc1`, the T/C (dose: 6.25 mg/kg/injection, schedule: Q04DX003 (ip), vehicle: other) is 100 % of control; the T/C (dose: 12.5 mg/kg/injection, schedule: Q01DX009 (ip), vehicle: other) is 100 % of control; the T/C (dose: 12.5 mg/kg/injection, schedule: Q04DX003 (ip), vehicle: other) is 115 % of control; the T/C (dose: 25.0 mg/kg/injection, schedule: Q01DX009 (ip), vehicle: other) is 120 % of control; the T/C (dose: 25.0 mg/kg/injection, schedule: Q04DX003 (ip), vehicle: other) was 110 % of control.

As for `Nc1nc(=S)c2ncn(C3OC(COC(=O)c4ccccc4)C(OC(=O)c4ccccc4)C3OC(=O)c3ccccc3)c2[nH]1` (centres undefined), the T/C (dose: 13.2 mg/kg/injection, schedule: Q01DX009 (ip), vehicle: saline with Tween-80) is 120 % of control; the T/C (dose: 33.0 mg/kg/injection, schedule: Q01DX009 (ip), vehicle: saline with Tween-80) is 154 % of control; the T/C (dose: 75.0 mg/kg/injection, schedule: Q01DX009 (ip), vehicle: saline with Tween-80) was 90 % of control; the T/C under setting [3] was 163 % of control.

For the compound `BrC1C2CC(c3ccccc32)C1Br` (centres undefined), the T/C by setting is: (dose: 100.0 mg/kg/injection, schedule: Q01DX001 (ip), vehicle: saline) 109 % of control; under setting [4], 100 % of control; under setting [3], 100 % of control; (dose: 200.0 mg/kg/injection, schedule: Q01DX001 (ip), vehicle: saline) 104 % of control; under setting [5], 104 % of control; (dose: 200.0 mg/kg/injection, schedule: Q04DX003 (ip), vehicle: saline) 91 % of control. Further, the T/C was 100 % of control (dose: 400.0 mg/kg/injection, schedule: Q01DX001 (ip), vehicle: saline); 109 % of control (dose: 400.0 mg/kg/injection, schedule: Q01DX009 (ip), vehicle: saline); 104 % of control (dose: 400.0 mg/kg/injection, schedule: Q04DX003 (ip), vehicle: saline).

With `COc1cccc(CCCC(=O)CS(C)=O)c1` (centres undefined), the T/C (dose: 50.0 mg/kg/injection, schedule: Q01DX009 (ip), vehicle: saline) was 98 % of control; the T/C under setting [4] was 102 % of control; the T/C under setting [5] was 109 % of control.

As for `COC1OCC(N=[N+]=[N-])C2OC12` (centres undefined), the T/C was 96 % of control (dose: 25.0 mg/kg/injection, schedule: Q01DX009 (ip), vehicle: water); 102 % of control (dose: 50.0 mg/kg/injection, schedule: Q01DX009 (ip), vehicle: water); 119 % of control (dose: 100.0 mg/kg/injection, schedule: Q01DX009 (ip), vehicle: water); 102 % of control (dose: 200.0 mg/kg/injection, schedule: Q01DX009 (ip), vehicle: water).

As to `CC(=O)C1CC2C=CCC(C2)C1` (centres undefined), the T/C (dose: 50.0 mg/kg/injection, schedule: Q01DX001 (ip), vehicle: saline with Tween-80) is 95 % of control; the T/C under setting [1] was 120 % of control; the T/C under setting [2] is 95 % of control.

Consider `Nc1ccc(S(=O)(=O)Nc2ccc(I)cc2)cc1`, for which the T/C is 90 % of control (dose: 100.0 mg/kg/injection, schedule: Q01DX009 (ip), vehicle: Klucel (hydroxypropylcellulose) (HPC)); 123 % of control (dose: 100.0 mg/kg/injection, schedule: Q04DX003 (ip), vehicle: Klucel (hydroxypropylcellulose) (HPC)); 104 % of control (dose: 200.0 mg/kg/injection, schedule: Q01DX009 (ip), vehicle: Klucel (hydroxypropylcellulose) (HPC)); 96 % of control (dose: 200.0 mg/kg/injection, schedule: Q04DX003 (ip), vehicle: Klucel (hydroxypropylcellulose) (HPC)); 100 % of control (dose: 400.0 mg/kg/injection, schedule: Q01DX009 (ip), vehicle: Klucel (hydroxypropylcellulose) (HPC)); 92 % of control (dose: 400.0 mg/kg/injection, schedule: Q04DX003 (ip), vehicle: Klucel (hydroxypropylcellulose) (HPC)).

As for `COc1cccc2c1C(=O)c1c(O)c3c(c(O)c1C2=O)C[C@@](O)(C(C)=O)C[C@@H]3OC1CC(N(C)C)C(O)C(C)O1` (some centres undefined), the T/C reads like this: (dose: 3.46 mg/kg/injection, schedule: Q04DX003 (ip), vehicle: water) 161 % of control; (dose: 5.76 mg/kg/injection, schedule: Q04DX003 (ip), vehicle: water) 167 % of control; (dose: 9.6 mg/kg/injection, schedule: Q04DX003 (ip), vehicle: water) 184 % of control; (dose: 16.0 mg/kg/injection, schedule: Q04DX003 (ip), vehicle: water) 110 % of control.

Turning to `NC(=S)N/N=C\c1nccc2c(C(F)(F)F)cccc12`, the T/C (dose: 25.0 mg/kg/injection, schedule: Q04DX003 (ip), vehicle: saline with Tween-80) was 106 % of control.
